# Assay results as given in paper PMC9598925, “Synthetic Amphipathic β-Sheet Temporin-Derived Peptide with Dual Antibacterial and Anti-Inflammatory Activities” (Antibiotics, 2022).
# Where two headings read alike, the source gives them in different places. Non-standard residues stand in square brackets, D forms with d. Residues, ends and D or L forms follow the SMILES beside them. Nle = CCCC[C@H](N)C(=O)O
# Legend:
# [1] = system: S. epidermidis ATCC 12228; type: cell-based
# Experimental: (§1) All Gram-negative and Gram-positive strains were obtained from the American Type Culture Collection (Rockville, MD, USA). MICs were determined as described previously. 50 μL of bacterial culture properly diluted in Mueller–Hinton (MH) broth were added to each well of a 96-well plate containing 50 μL of MH with serially two-fold diluted peptide from 100 μM, to reach a final cell density of 1 × 10^6 CFU/mL. Each MIC value indicates the lowest concentration of compound that causes a total inhibition of bacterial growth after 16–18 h of incubation at 37 °C.
# [2] = system: E. coli ATCC 25922; type: cell-based
# Experimental: as §1
# [3] = system: P. aeruginosa ATCC 27853; type: cell-based
# Experimental: as §1
# [4] = system: K. pneumoniae ATCC BAA-1705; type: cell-based
# Experimental: as §1
# [5] = system: B. megaterium Bm11; type: cell-based
# Experimental: as §1
# [6] = system: S. aureus ATCC 25923; type: cell-based
# Experimental: as §1
# [7] = system: A. baumannii ATCC 19606; type: cell-based
# Experimental: as §1
# [8] = system: J774A.1 murine macrophage cells; details: MTT, 3 independent experiments
# Experimental: The spectrophotometric absorbance was then measured using a microtiter enzyme-linked immunosorbent assay reader (Multiskan™ GO Microplate Spectrophotometer; Thermo Scientific™, Milan, Italy) at 540 nm. The percentage of cell viability was assessed by the following formula: (OD of treated cells/OD of control) × 100.
# [9] = system: IL-6 production in LPS-stimulated J774A.1 cells; experiment: Anti-inflammatory activity, IL-6 ELISA in LPS-stimulated macrophages; type: cell-based, murine; details: LPS 10 µg∙mL^−1, peptide 3 μM, 24 h, ELISA of supernatant, three independent experiments
# Experimental: Mouse macrophage cell line J774A.1 was cultured as previously described. Cells were seeded in Petri culture dishes (100 mm × 20 mm) at a density of 5 × 10^5 cells per dish and allowed to grow for 24 h. The medium was then replaced, and cells were treated with LPS (10 μg∙mL^−1) in presence or absence of [Nle^1, DLeu^9, DLys^10]TL at the concentration of 3 µM (non-cytotoxic concentration from MTT assay). Following incubation of 24 h, cells were collected with a cell scraper, and after centrifugation at 14,000× g for 10 min at 4 °C, the supernatant was collected and assayed for IL-6 enzyme-linked immunosorbent assay (ELISA) analysis.
# [10] = Peptide aggregation in aqueous solution, Nile Red; type: physicochemical; details: Nile Red 500 nM, 1–200 μM peptide, 1 h equilibration at room temperature, fluorescence, triplicate, Boltzmann fit
# Experimental: Nile Red (NR) was used as fluorescent probe to monitor the aggregation in solution [51]. NR is not very soluble in water and has a large preference to move into hydrophobic environment as aggregates, producing a blue shift and hyperchromic effect. The peptide stock (400 μM) was prepared in 1,1,1,3,3,3-hexafluoro-2-propanol (HFIP) as solvent and different aliquots were taken to prepare each peptide solution at different concentrations (1, 5, 10, 15, 20, 30, 50, 100, and 200 μM). Then, HFIP was removed under nitrogen stream, 1 mL of water was added, and the solution was sonicated for 15 min and freeze-dried. Finally, the peptide powders were dissolved with a solution of 500 nM of NR in water and equilibrated for 1 h at room temperature. Emission spectra for each solution were measured between 570 and 700 nm by a Cary Eclipse Varian spectrometer (San Diego, CA, USA), setting a slit width of 5 nm and an excitation wavelength of 550 nm and a 10 nm slit width. The measurements were performed in triplicate. The data were analyzed by plotting the maximum emission fluorescence corresponding wavelength (y) as a function of peptide concentration (x) and fitting with the sigmoidal Boltzmann equation as described previously.
# [11] = in vitro; details: male, human, 90% human serum (from human male AB plasma)
# Experimental: The peptide was mixed with 90% of human serum at a final concentration of 200 μM and incubated at 37 °C [27]. Aliquots of the mixture were taken at time intervals of 15, 45, 75, 90 and 120 min. The serum protein was removed by the precipitation with acetonitrile (MeCN) and centrifuged at 13,000 rpm for 15 min. Then, the supernatant was taken and analyzed by ultra-high performance liquid chromatography (UHPLC) using a Phenomenex Kinetex column (4.6 mm × 150 mm, 5 μm, C18) and a linear gradient from 10 to 90% of MeCN (0.1% TFA) in water (0.1% TFA) over 20 min. The percentage of the intact peptide was calculated by integrating the peak area of the UHPLC chromatogram.
# [12] = ANTS/DPX leakage assay; details: 100% = 0.1% Triton
# Experimental: The ability of the peptide [Nle^1, DLeu^9, DLys^10]TL to induce LUVs leakage was evaluated using ANTS/DPX assay. After the preparation of lipid films (0.1 mM) as described above, fluorophores ANTS (12.5 mM) and DPX (45 mM) were dissolved in water and added to lipid films. The mixture was frozen and lyophilized overnight. Then, the lipid films with ANTS and DPX were hydrated with PBS 1× buffer, vortexed for 1 h and then treated to obtain LUVs. The nonencapsulated ANTS and DPX were removed by gel filtration using a Sephadex G-50 column (1.5 cm × 10 cm) at room temperature. The leakage experiment was performed titrating LUVs with different peptide concentrations of 5, 10, 15, 20, 30, 50 μM, and each sample was excited at 385 nm (slit width, 5 nm) and the fluorescence emission was recorded at 512 nm (slit width, 5 nm). The liposomes leakage promoted by peptide was correlated with an increase of ANTS fluorescence at 512 nm. In this experiment, the control was represented by the complete release of ANTS after the treatment of LUVs with 0.1% Triton. The liposomes leakage was calculated as % Leakage = (Fi − F0)/(Ft − F0), where F0 is the fluorescence of intact LUVs before the addition of peptide, and Fi and Ft is the intensities of the fluorescence achieved after peptide and Triton-X treatment, respectively.
# [13] = Circular dichroism in vesicles; type: physicochemical; details: vesicles of DOPG/CL and DOPG/DOPE/CL, peptide 3 μM, phosphate buffer 5 mM pH 7.4, 25 °C; negative band at ~220 nm
# Experimental: All CD spectra were recorded from 260 to 190 nm (a bandwidth of 3 nm, a time constant of 16 s, and a scan rate of 10 nm/min) on a Jasco J-175 spectropolarimeter using a 1 cm quartz cell at 25 °C. Small unilamellar vesicles (SUVs) made of DOPG/CL (58/42 ratio in moles) and DOPG/DOPE/CL (63/23/12 ratio in moles) were used in the conformational study. SUVs were prepared as reported previously. Firstly, lipids dissolved in chloroform and an equal volume of peptide solution dissolved in 2,2,2-trifluoroethanol (TFE) containing the peptide [Nle^1, DLeu^9, DLys^10]TL at a concentration of 3 μM were mixed, vortexed, and lyophilized overnight. Then, the dry samples were hydrated with phosphate buffer 5 mM, pH 7.4, for 1 h and sonicated for 30 min to obtain SUVs. Each spectrum was corrected for the blank and converted into mean molar ellipticity.
smiles,measurement,setting,value
"CCCC[C@H](N)C(=O)N[C@@H](Cc1ccccc1)C(=O)N[C@H](C(=O)N1CCC[C@H]1C(=O)N[C@@H](Cc1c[nH]c2ccccc12)C(=O)N[C@@H](Cc1ccccc1)C(=O)N[C@@H](CO)C(=O)N[C@@H](CCCCN)C(=O)N[C@@H](Cc1ccccc1)C(=O)N[C@H](CC(C)C)C(=O)N[C@H](CCCCN)C(=O)N[C@@H](CCCNC(=N)N)C(=O)N[C@H](C(=O)N[C@@H](CC(C)C)C(N)=O)[C@@H](C)CC)C(C)C [[Nle^1, DLeu^9, DLys^10]TL] (H-[Nle]FVPWFSKF[dL][dK]RIL-NH2)",MIC,[1],3.12 µM
same,MIC,[2],6.25 µM
same,MIC,[3],12.5 µM
same,MIC,[4],12.5 µM
same,MIC,[5],0.78 µM
same,MIC,[6],3.12 µM
same,MIC,[7],3.12 µM
same,cytotoxic effect on murine macrophage cell line,"[8]; J774A.1, 1–3 μM",safe profile
same,cytotoxic effect on murine macrophage cell line,"[8]; J774A.1, 10 and 30 μM",significant reduction of cell viability
same,IL-6 production,[9],significant modulation of IL-6 production
same,critical aggregation concentration (CAC),[10],38.9 µM
same,"remaining at 0.75 h, 200 μM",[11],~75%
same,"remaining at 2 h, 200 μM",[11],~50%
same,LUVs leakage,"[12]; 10 μM peptide, LUVs DOPG/CL",~ 60%
same,LUVs leakage,"[12]; highest concentration of 50 μM, LUVs DOPG/DOPE/CL",~ 20%
same,molecular conformation (CD),[13],β-type conformation
